Our source for the viability values is paper PMC12040169 (PLOS Biology, 2025).

This data set in a line: in vitro. Conditions: human, hela cells, % viability.
As for `CC(Oc1ccc(Cl)cc1Cl)C(=O)Nc1ccc2oc(-c3ccncc3)nc2c1` (stereo not shown) [CBK266768], the viability (in general, a read-out of living cells in per cent, often relative to untreated cells) at 28.5 h, 10 µM worked out at 109%.

As to `COc1ccc(C(=O)Nc2ccccc2)cc1S(=O)(=O)Nc1cccnc1` [CBK266771], the viability at 28.5 h, 10 µM worked out at 94.4%.

For the molecule `CCCn1nnc(NC(=O)C(C)Oc2ccc(Cl)cc2Cl)n1` (stereo not shown) [CBK266772], the viability at 28.5 h, 10 µM was 98.6%. For the molecule `Cc1cc(Cl)c(S(=O)(=O)Nc2cccnc2)cc1OCC(=O)NC1CCCCC1` [CBK266773], the viability at 28.5 h, 10 µM amounted to 92.7%. Regarding `Cc1cccc(-c2nnc(-c3ccc(NC(=O)CSCc4ccccc4)cc3)o2)c1` [CBK266775], the viability at 28.5 h, 10 µM came to 109%. For the molecule `O=C(CCSc1c(Cl)cccc1[N+](=O)[O-])Nc1ccc(Br)c2cccnc12` [CBK266777], the viability at 28.5 h, 10 µM was found to be 101%. `Cc1ccc(C(=O)COc2ccc(/C=C(\C#N)c3nc(-c4ccc5c(c4)OCO5)cs3)cc2)cc1` [CBK266778]: the viability at 28.5 h, 10 µM was 101%.

On to `CC(Oc1ccc(Cl)cc1Cl)C(=O)Nc1ccc(N2CCN(C)CC2)cc1` (stereo not shown) [CBK266780], for which the viability at 28.5 h, 10 µM was determined as 94.1%. As for `Cc1cc(Cl)c(S(=O)(=O)N2CCCC2)cc1OCC(=O)NC1CCCCC1` [CBK266781], the figure is 93.9%; as for `CN(C)S(=O)(=O)c1cc(C(=O)Nc2ccc(C(=O)O)cc2)c(Cl)cc1Cl` [CBK266783], 99.5%; as for `O=C(Nc1cc(Cl)ccc1O)c1ccc(C(=O)Nc2cc(Cl)ccc2O)cc1` [CBK266784], 94.9%. To `Cc1cc(Cl)c(S(=O)(=O)Nc2ccc3c(c2)OCCO3)cc1OCC(=O)NC1CCCCC1` [CBK266786] belongs 95.5%; to `COc1ccc(-c2nc3ccccc3o2)cc1NC(=O)C(C)Oc1ccc(Cl)cc1Cl` (stereo not shown) [CBK266787], 76.4%; to `CC1CCN(S(=O)(=O)c2cccc(C(=O)N3CCC(C(=O)O)CC3)c2)CC1` [CBK266790], 87.4%.

Regarding `COc1cc(OC)c(NC(=O)C(C)Oc2ccc(Br)cc2)cc1Cl` (stereo not shown) [CBK266791], the viability at 28.5 h, 10 µM was 97%. Turning to `O=C(NNC(=O)c1cccnc1)c1ccc(NC(=O)c2ccco2)cc1` [CBK266792], the viability at 28.5 h, 10 µM was determined as 111%. On to `CC1CCN(S(=O)(=O)c2cccc(C(=O)NNC(=O)c3ccco3)c2)CC1` [CBK266796], for which the viability at 28.5 h, 10 µM is 92.2%.

Turning to `Cc1cc(Cl)c(S(=O)(=O)N2CCN(c3ccccn3)CC2)cc1OCC(=O)NC1CCCCC1` [CBK266798], the viability at 28.5 h, 10 µM worked out at 90.7%. Regarding `Cc1nnc2sc(-c3ccc(NC(=O)CSc4ccc(Cl)cc4)cc3)nn12` [CBK266800], the viability at 28.5 h, 10 µM turned out to be 108%. Take `COc1ccc(S(=O)(=O)Nc2ccc(S(=O)(=O)Nc3nccs3)cc2)c([N+](=O)[O-])c1` [CBK266801]: the viability at 28.5 h, 10 µM was 95.6%. Regarding `Cc1nnc2sc(-c3ccc(NC(=S)NC(=O)c4ccc(-c5ccccc5[N+](=O)[O-])o4)cc3)nn12` [CBK266803], the viability at 28.5 h, 10 µM is 86.4%. Take `O=C(CCc1nc2ccccc2nc1O)OCc1cccc([N+](=O)[O-])c1` [CBK266804]: the viability at 28.5 h, 10 µM stood at 85%. For `COc1ccc(/C(N)=N/OC(=O)C(C)Oc2ccc(Br)cc2)cc1OC` (stereo not shown) [CBK266807], the viability at 28.5 h, 10 µM is 95.6%. As to `COc1ccc2c(c1)c(=O)oc1c(CN3CCCC3)c(O)ccc12` [CBK266814], the viability at 28.5 h, 10 µM was 95.3%.

`Cc1nnc(SCC(=O)Nc2cc(C(F)(F)F)ccc2N2CCOCC2)o1` [CBK266815]: the viability at 28.5 h, 10 µM was 109%. With `CCOc1cc(S(=O)(=O)NCc2ccccn2)ccc1Cl` [CBK266817], the viability at 28.5 h, 10 µM is 99.2%. Turning to `CCCNC(CC(=O)Nc1ccccc1)C(=O)O` (stereo not shown) [CBK266819], the viability at 28.5 h, 10 µM was found to be 95.3%. To `Cc1cccc(NC(=O)C(CC(=O)O)NCc2ccccc2)c1` (stereo not shown) [CBK266821] belongs 87.3%. As for `Cc1c(Cl)cccc1NC(=S)NNC(=O)C(C)Oc1ccc(F)cc1F` (stereo not shown) [CBK266823], the viability at 28.5 h, 10 µM was found to be 97.8%. In the case of `Nc1ccccc1-c1ccccc1NC(=O)C(=O)O` [CBK266824], the viability at 28.5 h, 10 µM was determined as 110%. As to `CCN1CCN(C(=O)c2ccccc2N(Cc2ccccc2)S(=O)(=O)c2ccc(C)cc2)CC1` [CBK266827], the viability at 28.5 h, 10 µM stood at 91.6%. For `CS(=O)(=O)N(CC(=O)Nc1ccc(S(=O)(=O)N2CCCCCC2)cc1)c1ccccc1F` [CBK266829], the viability at 28.5 h, 10 µM turned out to be 92.9%. In the case of `O=C(CC(NC1CCCC1)C(=O)O)Nc1cccc(Cl)c1` (stereo not shown) [CBK266831], the viability at 28.5 h, 10 µM amounted to 105%. On to `COc1ccc(-n2c(S)nnc2-c2cccs2)cc1` [CBK266832], for which the viability at 28.5 h, 10 µM was determined as 103%. `COc1ccc(CCNC(=O)c2ccccc2N(C)S(C)(=O)=O)cc1` [CBK266833]: the viability at 28.5 h, 10 µM worked out at 104%. For `CSc1ccccc1NC(=O)CN(c1ccc(F)cc1)S(=O)(=O)c1ccc2c(c1)OCCO2` [CBK266836], the viability at 28.5 h, 10 µM stood at 101%.

In the case of `Cn1c(=O)c2ncn(CC(=O)Nc3cccc(C(=O)O)c3)c2n(C)c1=O` [CBK266838], the viability at 28.5 h, 10 µM came out at 98.4%. For the molecule `O=c1[nH]c(/C=C\c2cccc(OCCOc3ccccc3)c2)c([N+](=O)[O-])c(=O)[nH]1` [CBK266840], the viability at 28.5 h, 10 µM worked out at 105%.

With `COc1nc(-c2ccccc2)ccc1-c1noc(COc2ccccc2)n1` [CBK266841], the viability at 28.5 h, 10 µM amounted to 91.8%. Regarding `O=C(NNC(=S)NCC1CCCO1)c1cccnc1` (stereo not shown) [CBK266842], the viability at 28.5 h, 10 µM turned out to be 97.5%. Turning to `Cc1cccc(OCCSc2nc3c(N)ncn(Cc4ccccc4)c-3n2)c1` [CBK266843], the viability at 28.5 h, 10 µM is 84.1%.

As to `Cc1cc(C)c(S(=O)(=O)N2CCC(C(=O)NNC(=S)NC3CCCC3)CC2)c(C)c1` [CBK266844], the viability at 28.5 h, 10 µM was found to be 98.4%. As for `O=C(CCc1ccc(S(=O)(=O)NC2CCCCC2)cc1)Nc1ccc2c(c1)OCCO2` [CBK266845], the viability at 28.5 h, 10 µM was 95.2%. As for `COC(=O)c1c(NC(=S)Nc2cn(C)nc2C(N)=O)sc2c1CCCCC2` [CBK266849], the figure is 93.4%. With `CC(Oc1ccc2c(c1)OCO2)C(=O)NNC(=O)Nc1cccc(Cl)c1Cl` (stereo not shown) [CBK266852], the viability at 28.5 h, 10 µM worked out at 86.5%. For the molecule `Cn1c2ccccc2n2c(SCc3nc4ccc([N+](=O)[O-])cc4[nH]3)nnc12` [CBK266853], the viability at 28.5 h, 10 µM is 88.6%.

As for `COc1cc([N+](=O)[O-])ccc1NC(=O)NCc1ccco1` [CBK266855], the viability at 28.5 h, 10 µM came out at 101%.

For `O=C(COc1ccc(F)cc1F)NNC(=S)NC1CCCCC1` [CBK266859], the viability at 28.5 h, 10 µM worked out at 82.2%.

On to `COC(=O)c1ccccc1NC(=O)N1CCN(S(=O)(=O)c2ccc(Cl)cc2)CC1` [CBK266860], for which the viability at 28.5 h, 10 µM came out at 88%. For `CC(C)c1ccc(S(=O)(=O)Nc2ccc(O)c(Sc3nc[nH]n3)c2)cc1` [CBK266861], the viability at 28.5 h, 10 µM amounted to 90.8%. Regarding `COC(=O)c1c(NC(=S)Nc2ccc(Br)cn2)sc2c1CCC2` [CBK266862], the viability at 28.5 h, 10 µM worked out at 92.9%. As for `COc1cc([N+](=O)[O-])ccc1NC(=S)NNS(=O)(=O)c1cc(Cl)c(Cl)cc1Cl` [CBK266863], the viability at 28.5 h, 10 µM stood at 96.2%. `CC(NS(=O)(=O)c1ccc(CCC(=O)N2CCN(C)CC2)cc1)c1ccccc1` (stereo not shown) [CBK266868]: the viability at 28.5 h, 10 µM was found to be 91.7%. Turning to `Cc1nnc(N2C(=O)c3oc4ccc(Cl)cc4c(=O)c3C2c2cccc(OCc3ccccc3)c2)s1` (stereo not shown) [CBK266870], the viability at 28.5 h, 10 µM amounted to 95%. Consider `O=C(NNS(=O)(=O)c1ccc([N+](=O)[O-])cc1)Nc1cccc(C(F)(F)F)c1` [CBK266871], for which the viability at 28.5 h, 10 µM turned out to be 105%. For `COc1ccc(N(C(C)C(=O)Nc2ccc(Cl)c(Cl)c2)S(C)(=O)=O)cc1` (stereo not shown) [CBK266872], the viability at 28.5 h, 10 µM is 114%. As to `CCOc1ccccc1NC(=O)CN(C)S(=O)(=O)c1ccc2ccccc2c1` [CBK266874], the viability at 28.5 h, 10 µM worked out at 101%. For the molecule `Cn1c(=O)c2ncn(CC(=O)Nc3ccc(N4CCN(Cc5ccccc5)CC4)cc3)c2n(C)c1=O` [CBK266875], the viability at 28.5 h, 10 µM is 99.7%.

As to `Cc1nnc(SCC(=O)NNC(=O)c2cccs2)[nH]1` [CBK266879], the viability at 28.5 h, 10 µM is 93.7%. With `NS(=O)(=O)c1ccc(N/C(S)=N\c2cccc(C(=O)O)c2)cc1` [CBK266880], the viability at 28.5 h, 10 µM came out at 103%. Regarding `COc1ccc(CCNC(=S)NN2CCN(C)CC2)cc1OC` [CBK266884], the viability at 28.5 h, 10 µM stood at 93.2%. Consider `COC(=O)c1c(NC(=S)NCCn2cc(Br)cn2)sc2c1CCC(C)C2` (stereo not shown) [CBK266886], for which the viability at 28.5 h, 10 µM was 89.8%. As for `COC(=O)c1c(NC(=S)Nc2ccn(C)n2)sc2c1CCCCC2` [CBK266888], the figure is 106%; as for `C=CCNC(CC(=O)Nc1ccc(C)c(Cl)c1)C(=O)O` (stereo not shown) [CBK266892], 92.8%; as for `CN(c1ccc(C(=O)Nc2ccc(S(=O)(=O)N3CCCC3)cc2)cc1)S(=O)(=O)c1ccccc1` [CBK266896], 102%.

For `COc1ccc(CCNC(=S)N2CCN(c3ccccn3)CC2)cc1OC` [CBK266897], the viability at 28.5 h, 10 µM was found to be 94.5%. With `COc1ccc(S(=O)(=O)N2CCN(C(=S)Nc3ccc(S(N)(=O)=O)cc3)CC2)cc1` [CBK266898], the viability at 28.5 h, 10 µM came to 92.6%. To `Cc1ccc2oc(-c3cc(NC(=O)c4nc[nH]n4)ccc3O)nc2c1` [CBK266900] belongs 101%; to `O=C(CCC(=O)c1ccc(F)cc1)Nc1cccnc1` [CBK266901], 89.4%. Take `Cc1ccc(C)c(C(=O)CCC(=O)Nc2cccnc2)c1` [CBK266902]: the viability at 28.5 h, 10 µM is 95.8%. As for `COC(=O)c1c(NC(=S)NCCn2cc(Br)cn2)sc2c1CCC2` [CBK266905], the viability at 28.5 h, 10 µM came out at 98.2%. Regarding `O=C(O)c1ccc(CNC(=S)NCC2CCCO2)cc1` (stereo not shown) [CBK266908], the viability at 28.5 h, 10 µM is 98.2%. For `O=C(Oc1ccc(N(C(=O)c2ccncc2)S(=O)(=O)c2cccc3cccnc23)c2ccccc12)c1ccncc1` [CBK266915], the viability at 28.5 h, 10 µM came to 79.5%. As to `COc1ccc(CCNC(=S)N2CCN(S(C)(=O)=O)CC2)cc1OC` [CBK266917], the viability at 28.5 h, 10 µM worked out at 115%. For the molecule `CSc1ccccc1NC(=O)Cn1c(-c2nonc2N)nc2ccccc21` [CBK266919], the viability at 28.5 h, 10 µM came out at 90%. On to `CC(Oc1ccc2c(c1)OCO2)C(=O)NNC(=O)Nc1cccc(C(F)(F)F)c1` (stereo not shown) [CBK266922], for which the viability at 28.5 h, 10 µM came out at 87.7%.
